Laboratory results published in patent publication US6849602B1 (The Regents of the University of California, priority 1996, dated 2005).
“Also recorded” adds a separate entry of the source. No end group written: not given here.

Experiments:
neuroblastoma cells [1] = test: Neurotrophic activity (neurite outgrowth, choline acetyltransferase, cell death); assay type: cell-based
Chung model rats = test: Tactile allodynia (von Frey, 50% paw withdrawal threshold) after bolus intrathecal injection in Chung model rats; assay type: in vivo, rat; details: for activity in alleviating neuropathic pain as assayed using Chung rats: summary statement
Procedure: Each of the three peptides were obtained in pure form by chemical synthesis, dissolved in sterile PBS and buffered to a neutral pH.
The surgical procedure previously described by Kim and Chung, supra (1992) was performed on male Sprague-Dawley rats weighing 120 to 150 grams to induce an allodynic state. Briefly, the rats were anesthetized with halothane; subsequently, the left L-5 and L-6 spinal nerves were isolated adjacent to the vertebral column and ligated with 6.0 silk suture distal to the dorsal root ganglion.
After a ten to fourteen day post operative recovery period, a spinal catheter was introduced. Five days following the second surgery, intrathecal drug administration was accomplished using a gear driven micro-injection syringe connected to a spinal catheter inserted through the foramen magnum. Prior to testing, the rats were placed in clear plastic wire meshed cages and allowed to acclimate.
To assess the 50% mechanical threshold for paw withdrawal, a von Frey hair was applied to the hind foot avoiding the foot pad. Each of the von Frey hairs, which are calibrated to bend at increasing log forces, were pressed perpendicularly to the foot with sufficient force to cause slight bending for a duration of approximately six to eight seconds. A positive response was noted if the foot was sharply withdrawn. Six data points were collected for each point with the maximum and minimum stimulus noted for each time point. The resulting pattern of the responses was tabulated, and the 50% response threshold was computed. The graph gives the response to the indicated dosage of peptide given as a single intrathecal bolus injection. The X-axis indicates the time after the injection at which point the hypersensitivity to pressure on the foot pad was measured.

taxol-treated mice = test: Loss of thermal sensation (Hargreaves) in taxol-treated mice; assay type: in vivo, mouse
Procedure: Mice were administered taxol in order to induce sensory neuropathy.
The loss of thermal sensation was measured using a Hargreaves sensory testing apparatus as an indicator of sensory neuropathy.

neuroblastoma cells [2] = details: O'Brien et al.; cited from earlier work
[3] = test system: normal male Sprague Dawley rats; test: Hot plate response latency in normal rats after intrathecal injection; assay type: in vivo, rat; details: hot plate 52.5° C., up to 180 minutes after intrathecal injection
Procedure: Briefly, the period of time before the rat withdraws the affected foot from a source of heat is defined as the hot plate latency and is a measure of tolerance to pain caused by a heat stimulus.
An intrathecal catheter was placed into normal male Sprague Dawley rats. […] Rats were examined on the hot plate (52.5° C.); hot plate response latencies were measured prior to injection and at various time points up to 180 minutes after the injection.

CEFLVKEVTKLIDDNKTEKEIL [SEQ ID NO:8]
neurotrophic activity (neuroblastoma cells [1]): lacks neurotrophic activity | allodynic response (Chung model rats; injection of 17.5 μg): No change in the allodynic response | activity in alleviating neuropathic pain as assayed using Chung rats (Chung model rats): inactive in alleviating neuropathic pain | activity in alleviating neuropathic pain as assayed using Chung rats (Chung model rats; listed as SEQ ID NO8): lacks activity in alleviating neuropathic pain

CEFLVKEVTKLIDNNKTEKEIL [SEQ ID NO:1]
loss of thermal sensation (taxol-treated mice; 100 μg/kg): the loss of thermal sensation was inhibited | loss of thermal sensation (taxol-treated mice; similarly assayed, dose not stated): effective in inhibiting less of thermal sensation | neurotrophic activity (neuroblastoma cells [1]): have neurotrophic activity | cell death in neuroblastoma cells (neuroblastoma cells [2]): prevents cell death in neuroblastoma cells | choline acetyltransferase activity (neuroblastoma cells [2]): stimulates | neurite outgrowth (neuroblastoma cells [2]): stimulates neurite outgrowth | duration of effect following administration (Chung model rats; FIG. 1): 3 h | latest time point with significantly reduced allodynia (Chung model rats; highest dose, intrathecal): ≥ 180 min | time after injection to significant effect (Chung model rats; intrathecal bolus): ≤ 15 min | time of maximum (peak) effect post-injection (Chung model rats; intrathecal bolus): 120 min | tactile allodynia (force threshold) (Chung model rats; intrathecal injection of 0.007 μg): no significant reduction in allodynia | tactile allodynia (force threshold) (Chung model rats; intrathecal injection of 0.7 or 0.07 μg): suppressed allodynia in a dose-dependent fashion | activity in alleviating neuropathic pain as assayed using Chung rats (Chung model rats): reduces the painful allodynia; also recorded: alleviate neuropathic pain | hot plate response latency [3]: No significant elevation of the hot plate response latency

LIDNNKTEKEIL [SEQ ID NO:3]
neurotrophic activity (neuroblastoma cells [1]): active as a neurotrophic factor

TKLIDNDKTEKEIL [SEQ ID NO:9, substitution of the second conserved asparagine residue]
neurotrophic activity (neuroblastoma cells [1]): lacks neurotrophic activity

TKSIDNNKTEKEIL [SEQ ID NO:10, substitution of the conserved leucine residue]
neurotrophic activity (neuroblastoma cells [1]): lacks neurotrophic activity
